Among the data in a melting point compilation (Tetko et al.; mined from patent text by program, amines drawn as free bases though some values may be those of a salt) are melting point values, retold here.

For the compound `CCCCn1c(=O)c(NC(=O)Nc2c(C(C)C)ccc(NC(=O)c3cccnc3)c2C(C)C)c(-c2cccc(OC)c2)c2cccnc21`, the melting point (commonly the temperature of the solid-liquid transition) was in the range of 179 to 180 °C.
In the case of `Oc1ccc(C2=NCCO2)cc1`, the melting point lay within 162 to 163 °C.
`CCCn1c(=O)[nH]c2ccc(C(=O)c3nc(Br)c4ccccn34)cc2c1=O` registered a melting point of 322 °C.
Compound `CC(C)Nc1cccnc1N1CCN(C(=O)c2ccc(C(=O)N(C)CCO)cc2)CC1` gave a melting point of 131 to 132 °C.
`O=C(CSc1ccccc1)NNC(=O)N1Cc2ccccc2Oc2ccc(Cl)cc21` had a melting point of 172 to 175 °C.
Regarding `O=C(OCc1ccccc1)c1ccc(OCc2cccc(COc3ccc(C(=O)OCc4ccccc4)cc3)c2)cc1`, the melting point lay within 92.5 to 93.8 °C.
In the case of `CCCCc1oc2ccccc2c1C(=O)NCc1ccc2c(-c3ccc(OC)cc3)c(O)ccc2c1` it was 118 to 122 °C; in that of `COc1cc(CCCO)cc2c(O)c(C(=O)NCc3ccc(Cl)cc3)cnc12`, 201 to 204 °C; in that of `Cn1cc(CS(C)=O)c(=O)c2ccccc21` (centres undefined), 93 to 95 °C.
With `Clc1nccc(-n2ccc3c(SCc4ccccc4)cccc32)n1`, the melting point was 159 to 161 °C.
Take `Cc1ccc(C(=O)C2=C(O)C(=O)N(c3ccc(N(C)C)nn3)C2c2ccc(C(C)C)cc2)cc1` (centres undefined): the melting point was 281 °C.
`OC1(c2ccc(F)c(F)c2)CCC2(CC1)OCCO2` registered a melting point of 118 to 120 °C.
`Nc1cc(C#Cc2ccc3c(C(=O)Nc4cccc(C(F)(F)F)c4)cccc3c2)ncn1` returned a melting point of 217 to 220 °C.
`NCCNc1cnnc(N)n1` registered a melting point of 186 to 191 °C.
As for `CCCCn1c(NNC(=S)NC(C)=O)cc(=O)n(CCC)c1=O`, the melting point lay in the range of 149 to 152 °C.
In turn, `CCOC(=O)NN=Cc1nc(C)[nH]c1C` displayed a melting point of 208 to 210 °C.
The figure for `O=C(OC(Cc1c[nH]cn1)C(=O)O)C(Cc1ccccc1)Cc1ccccc1` (centres undefined) is 210 °C; for `c1ccc(-c2ccnc(Nc3cccc(-n4ccnc4)c3)n2)nc1` it is 210 to 211 °C; for `Cc1cc(C)c(NC(=O)N=C2CCCN2C)c(C)c1` it is 121 to 123 °C.
In the case of `CCC(=O)NCCC1CCc2ccc3nn(C)cc3c21` (centres undefined) it was 105 to 107 °C.
For the compound `CCCCCOC1CCC(=O)N1` (centres undefined), the melting point was 42 to 43 °C.
`CC1(C)CC(=O)c2c(ncc3[nH]c4cc(F)ccc4c23)C1` showed a melting point of 271 to 273 °C.
Turning to `CC(=O)OCc1c(Br)cccc1N1CCc2c(sc3c2CCCC3)C1=O`, the melting point was in the range of 74 to 75 °C.
The compound `Cc1cc(-c2ccnc(NCc3ccccc3)c2)n(-c2cccc(F)c2)n1` displayed a melting point of 94 to 96 °C.
Compound `CC1Cc2c(N3C(=O)c4ccccc4C3=O)ccc(Cl)c2O1` (centres undefined) gave a melting point of 197 to 198 °C.
`COC(=O)c1ccc(NC(=O)c2ccccc2-c2ccccc2)c(OC)c1` had a melting point of 115 to 117 °C.
`CN1C[C@H](CCN2CCN(C(c3ccccc3)c3ccccc3)CC2)C[C@@H]2c3cccc4[nH]cc(c34)C[C@H]21`: the melting point was in the range of 206 to 212 °C.
With `CC(=O)Nc1nc(Cl)c2ncn([C@@H]3C[C@H](OC(C)=O)[C@@H](O)[C@H]3O)c2n1` (racemic), the melting point is 198 °C.
In the case of `O=C(O)CC[C@H](NCC(O)C(O)C(O)C(O)C(=O)O)C(=O)O` (some centres undefined) it was 90 °C.
`CCC(C)(C)NC(=S)Nc1cc(F)cc(Cl)c1` registered a melting point of 116 to 118 °C.
Consider `CN1C[C@H](CCN2CCN(C(c3ccccc3)c3ccccc3)CC2)C=C2c3cccc4[nH]cc(c34)C[C@H]21`, for which the melting point was 165 to 169 °C.
In turn, `N#CCCCCCCNCc1ccc(O)cc1` came in with a melting point of 42 to 44.5 °C.
In turn, `Fc1ccc2[nH]c3c(c2c1)CCNC3c1ccc2c(c1)OCO2` (centres undefined) yielded a melting point of 172 °C.
Consider `O=C(NCc1cc(Br)cc2[nH]c(=O)c(=O)[nH]c12)c1ccccn1`, for which the melting point was greater than 270 °C.
Compound `CCOC(=O)c1ccc(-c2ccc(-c3ccccc3)s2)s1` displayed a melting point of 113 to 115 °C.
`Cc1cc(C)c2c(O)c([N+](=O)[O-])c(=O)oc2c1` displayed a melting point of 186 to 187 °C.
In the case of `COC(=O)c1ccc(Cl)cc1NC(=O)CSc1ccc(N)cc1`, the melting point was 145 to 147 °C.
In turn, `Cc1nc(C(C)(O)c2cccs2)sc1C` (centres undefined) showed a melting point of 129 to 130 °C.
As for `CO[C@@H](Cc1ccc(OCCc2nc(-c3ccc(C(F)(F)F)cc3)oc2C)c2ccccc12)C(=O)O`, the melting point was in the range of 167 to 168 °C.
In the case of `N#Cc1cc(Br)cc2ccc(O)cc12`, the melting point lay within 222 to 224 °C.
`CCc1cc(-c2ccc(Cl)cc2)nc2c(C(=O)Nc3cccc(S(N)(=O)=O)c3)cnn12` had a melting point of 252 to 253 °C.
For the compound `CC(C)NC(=O)Nc1ccnnc1`, the melting point is 206 to 209 °C.
`Cc1nc2ccccc2c(=O)n1-c1ccc(Cl)cc1` showed a melting point of 141 to 142 °C.
`Ic1cnc2c(c1)NCCN2`: the melting point lay within 126 to 128 °C.
`COC(=O)c1nc(-c2ccc(Cl)c(OC)c2F)nc(O)c1Cl`: the melting point lay within 215 to 217 °C.
Compound `Cc1sc(-c2ccccc2F)nc1O` returned a melting point of 159 to 160 °C.
With `Cc1c(C#N)c2c(c(C)c1NC(=O)CC(C)(C)C)C(c1ccc(C(C)C)cc1)CO2` (centres undefined), the melting point is 135 to 136 °C.
The compound `Nc1ccccc1C(=O)NCCN1CCC(Nc2nc3ccccc3n2Cc2ccc(F)cc2)CC1` displayed a melting point of 172 °C.
`C=CC(C)=CC=C(C(C)=CC(=O)OC1C(CO)OC(OC)C(O)C1O)c1c(C)cc(OC)c(C)c1C` (centres undefined) came in with a melting point of 159 to 160 °C.
As to `CC(=O)OC1CC2(CCN(CCCC(=O)c3ccc(F)cc3)C2)c2ccccc21` (centres undefined), the melting point lay within 154 to 156 °C.
The figure for `O=Cc1cnc2sc3cc(F)ccc3n12` is 182 to 183 °C; for `CCCCN(CCCC)C(=O)Nc1cccc(Br)c1` it is 80 to 81 °C.
`CCCS(=O)(=O)c1cc([C@H]2CC[C@H](c3cc(OC)c(OC)c(OC)c3)O2)cc(OC)c1O` (relative stereo) gave a melting point of 168 to 169 °C.
As for `CC(C)n1nc(Br)c([N+](=O)[O-])c1Br`, the melting point is 72 to 73 °C.
With `O=C(NC1(C(=O)O)CC1)C(CS)Cc1ccccc1` (centres undefined), the melting point fell in the range of 222 to 224 °C.
`Cc1c(-c2ccc3oc(=O)n(C)c3c2)nc2c(OCc3ccccc3)cccn12` showed a melting point of 210 °C.
The figure for `CC(C)c1cccc2c1C(=O)N(COC(=O)c1c(Cl)ccc(O)c1Cl)S2(=O)=O` is 78 to 80 °C; for `CCCC(NC=O)C1(c2ccc(Cl)cc2)CCC1` (centres undefined) it is 97.5 to 98.5 °C.
In the case of `CN(C)c1ccc2c(c1)SSSSS2` it was 122 °C.
The figure for `O=S(=O)(Nc1c(Cl)cccc1Cl)c1nc2ncccn2n1` is 278 to 280 °C; for `CCC(=O)NC1=NN(c2ccccc2)CC1` it is 170 to 171 °C; for `Oc1ccc(OCCCCI)cc1` it is 51 to 53 °C.
`CC(=O)N1CCOc2ccc(C3=NNC(=O)CC3)cc21`: the melting point fell in the range of 156 to 158 °C.
The compound `CCOC=CC(=O)Nc1cccc(C(=O)O)c1` gave a melting point of 200 to 202 °C.
`COc1cc2nc(N3CCc4c(CN5CCOCC5)cccc4C3)[nH]c(=O)c2cc1OC` displayed a melting point of 228 to 230 °C.
The figure for `CCOC(=O)Cc1ccc2c(c1)C(c1ccccc1Cl)=NCc1nnc(C)n1-2` is 157 to 158 °C; for `O=C(Nc1ccccc1)Nc1ccc2ccc(-c3cccc(Br)c3)nc2n1` it is 285 °C.
The figure for `CCCCCCCCCCCCCCCCCCOc1cc(N)cc(C(N)=O)c1` is 139 to 143 °C.
As for `Cn1c(COc2ccc(CC3SC(=O)NC3=O)cc2)nc2ccc(Oc3ccc(NC(=O)C4CCCC4)cc3)cc21` (centres undefined), the melting point is 227 to 228 °C.
With `CCNC1=NS(=O)(=O)c2cc(F)c(F)cc2N1`, the melting point was 246 to 252 °C.
Compound `CCCn1ncc(C(N)=O)c1N` yielded a melting point of 183 to 185 °C.
In the case of `O=Cc1c2ccccc2c(Cl)c2ccc(Cl)cc12` it was 176 °C.
Take `C=CCn1c2c(c3cc(OCCN(C)C)ccc31)C(=O)c1cc(OC)c(OC)cc1-2`: the melting point came out at 138 °C.
The compound `CC(C)NCC(O)COc1ccccc1-c1ccc(=S)[nH]n1` (centres undefined) had a melting point of 166 to 168 °C.
`COc1ccc(NC(=O)c2ccc(C3=NC(C)(C)Cc4cc(OC)c5c(c43)CC(C)(C)O5)cc2)cc1` had a melting point of 120 to 122 °C.
`CC(O)N1CCC(=C2c3ccccc3C=Cc3ccc(S(=O)(=O)C(F)(F)F)cc32)CC1` (centres undefined) showed a melting point of 141 to 144 °C.
As for `CC(C)(C)OC(=O)C(O)c1ccc2c(c1)OC(c1ccccc1)(c1ccccc1)O2` (centres undefined), the melting point lay within 153 to 154 °C.
Regarding `COc1ccc(-c2ccc3c(c2)c(C)c(-c2ccccc2)n3Cc2ccccc2)cc1`, the melting point fell in the range of 117 to 122 °C.
In the case of `COc1ccc2c(c1)NC1(CCN(Cc3ccccc3)CC1)c1cccn1-2` it was 123 to 124 °C; in that of `COC(=O)CCCc1cc2cc(Cl)ccc2n1S(=O)(=O)c1ccc2c(ccn2C(C)=O)c1`, 127 to 131 °C.
`CCCO[C@@H]1C[C@@H](C(=O)O)N(C(C)=O)C1` came in with a melting point of 148 to 153 °C.
As for `O=Cc1c(Cl)cc(OCc2ccccc2)cc1OCc1ccccc1`, the melting point lay in the range of 85 to 86 °C.
The figure for `CCc1nn(Cc2cc(O)n[nH]2)c(CC)c1Oc1cc(Cl)cc(Cl)c1` is 142 to 144 °C.
In the case of `CCOCOC1CCC2(C)C(C1)C(=O)CC1C2CCC2(C)C1CC1OC3(CCC(C)CO3)C(C)C12` (centres undefined) it was 191 to 193 °C; in that of `CN(CCCNC(=O)c1c2ccccc2nc2ccccc12)CCCNC(=O)c1c2ccccc2nc2c1[nH]c1ccccc12`, 108 to 110 °C; in that of `CN(CCc1ccc2c(c1)OCO2)C(C)(C)CCC(C(N)=O)(c1ccccc1)c1ccccc1`, 165 °C.
`COc1ccc(C=NO)cc1-c1cc2c(cc1C)C(C)(C)CCC2(C)C` showed a melting point of 152 °C.
In the case of `NC(N)=Nc1nc(-c2cccc(N)n2)cs1`, the melting point turned out to be 242 °C.
The compound `Cc1cccc(NC(=O)n2nc(Oc3cccc(C(F)(F)F)c3)cc2C)c1` had a melting point of 47 to 49 °C.
